Reference: patent publication US20090081154A1, “Attractant composition for yellowjackets” (priority 2006, published 2009)
Where “and” joins values, the source holds several entries; their conditions need not be identical. Equal values may be shown once.

Legend:
yellowjackets [1] = test: Second field trap experiment, LHS upper patio, 4 sets of three treatments; format: in vivo, Vespula pensylvanica; details: 7/21-8/10/05, twenty days, LHS UP, 4 traps per treatment (one octyl butyrate trap lost)
Excerpt: A second experiment was set up at the Lawrence Hall of Science upper patio, placing 4 sets of the three treatments randomly around the patio, a total of 12 traps. One trap containing octyl butyrate was lost and not counted.

yellowjackets [2] = test: Third field trap trial, LHS upper patio, 12 traps; format: in vivo, Vespula pensylvanica; details: 8/11-9/7/05, LHS UP; for total YJ: 4 repetitions of each treatment
Description: A third trial was performed in the same location using a total of 12 traps. There were 4 repetitions of each treatment presented.

yellowjackets [3] = test: Three ester trap trials taken together (totals and conclusions); format: in vivo, Vespula pensylvanica; details: for relative attractiveness of the esters, in words: heptyl butyrate, octyl butyrate and their combination compared; for Total numbers of yellowjackets caught for all trials: sum of Tables 1-3
Description: Several experiments were performed to determine the relative attractiveness of heptyl butyrate, octyl butyrate and a 1:1 mixture of the two esters. In an initial experiment, one trap each containing octyl butyrate, heptyl butyrate, or a 1:1 mixture of the two esters, was placed around the perimeter of the north lawn of the Lawrence Hall of Science, University of California, Berkeley. After approximately 1 month, the yellowjackets in each trap were collected and counted. […] The results are shown below in Table 1: A second experiment was set up at the Lawrence Hall of Science upper patio, placing 4 sets of the three treatments randomly around the patio, a total of 12 traps. One trap containing octyl butyrate was lost and not counted. After twenty days, the total numbers of yellowjackets caught for each of the treatments is shown in table 2 below: A third trial was performed in the same location using a total of 12 traps. There were 4 repetitions of each treatment presented. The total number of yellowjackets caught per each treatment is shown in table 3: Total numbers of yellowjackets caught for all trials are given below: The trial from Jul. 21-Aug. 10, 2005 cannot be assumed to be an anomaly.

Vespula pensylvanica = test: Initial field trap experiment: octyl butyrate, heptyl butyrate or 1:1 mixture, LHS north lawn; format: in vivo; details: one trap per composition, 6/15-7/21 (approximately 1 month), LHS NL
Description: Several experiments were performed to determine the relative attractiveness of heptyl butyrate, octyl butyrate and a 1:1 mixture of the two esters. In an initial experiment, one trap each containing octyl butyrate, heptyl butyrate, or a 1:1 mixture of the two esters, was placed around the perimeter of the north lawn of the Lawrence Hall of Science, University of California, Berkeley. After approximately 1 month, the yellowjackets in each trap were collected and counted. […]

yellowjackets [4] = test: Field trap test octyl butyrate vs. OB + 1% trans-2-hexenol, Strawberry Baseball Diamonds; format: in vivo, Vespula pensylvanica; details: 8 ml attractant, 27 days; for # of YJ (single trap): per trap, t-2-H 1% by weight
Description: In another experiment conducted at the Strawberry Baseball Diamonds, octyl butyrate was compared to octyl butyrate+t-2-hexenol, where the trans-2-hexenol was present in 1% concentration by weight. […] For each treatment, 8 ml of attractant was used. The traps were collected and counted after 27 days. The total number of yellowjackets caught in the three traps with octyl butyrate alone is 113. A total of 170 yellowjackets were caught in the three traps baited with octyl butyrate +t-2-hexenol.

yellowjackets [5] = test: Field trap test octyl butyrate vs. OB + 1% methyl salicylate, LHS Back Plaza; format: in vivo, Vespula pensylvanica; details: 1% MSA
Description: In one experiment, octyl butyrate (OB) was compared with OB containing 1% methyl salicylate (MSA). Six traps were placed at the Lawrence Hall of Science Back Plaza on Jul. 21, 2005. Three of the traps were baited with octyl butyrate alone. The other three were baited with the mixture of 1% methyl salicylate in octyl butyrate. Each of the traps contained 8ml of attractant dispensed on a cotton pad, which was placed inside the trap. The traps were collected on Sep. 8, 2005, and the yellowjackets counted.

yellowjackets [6] = test: Field trap test octyl butyrate vs. OB + 1% MSA + 1% t-2-H, LHS North Lawn; format: in vivo, Vespula pensylvanica; details: three traps per treatment, 8 ml attractant, 1% each MSA and t-2-H; listed as OB
Description: In a separate experiment, a mixture of octyl butyrate and the two kairomones methyl salicylate (MSA) and trans-2-hexenol (t-2-H), where the two kairomones were each present in 1% by weight quantities, was tested against octyl butyrate alone. Three repetitions of each treatment were tested in yellowjacket traps placed around the Lawrence Hall of Science North Lawn on Jul. 21, 2005. Each lure contained 8 ml of attractant. The traps were collected and the yellowjackets removed and counted on Aug. 11, 2005. […] A total of 40 yellowjackets were caught using the combination OB+MSA+t-2-H, whereas only 31 yellowjackets were caught in traps baited with OB alone.

Compound | Total # YJ (yellowjackets [1]) | Avg catch per trap (yellowjackets [2]) | total YJ (yellowjackets [2]) | relative attractiveness of the esters, in words (yellowjackets [3]) | Total numbers of yellowjackets caught for all trials (yellowjackets [3]) | # YJ caught (Vespula pensylvanica) | # of YJ (single trap) (yellowjackets [4]; listed as OB) | # of YJ (single trap) (yellowjackets [4]; listed as Octyl (OB)) | Total YJ per Treatment (yellowjackets [4]; three traps per treatment, t-2-H 1%) | # of YJ (single trap) (yellowjackets [5]; per trap, 8 ml attractant on cotton pad, LHS Back Plaza, collected Sep. 8, 2005) | Totals (YJ per treatment) (yellowjackets [5]; three traps per treatment, 8 ml attractant) | Totals (YJ per treatment) (yellowjackets [6])
CCCCCCCOC(=O)CCC [heptyl butyrate] | 235 | 61 | 242 | more effective in luring and capturing yellowjackets than octyl butyrate | 625 | 148 |  |  |  |  |  | 
CCCCCCCCOC(=O)CCC [octyl butyrate] | 145 | 45 | 134 | inferior attractant to heptyl butyrate | 315 | 36 | 38 and 41 | 34 | 113 | 0 | no yellowjackets were caught | 31 and 30
